Broadly, the EC50 is the concentration giving half of the maximal effect.

The target of this assay is T1, human CRF2α receptor (Homo sapiens, UniProt Q13324).
T1 construct: expressed in transfected cells; host or cells: TeloHEAC
T1 sequence (Q13324 1-411): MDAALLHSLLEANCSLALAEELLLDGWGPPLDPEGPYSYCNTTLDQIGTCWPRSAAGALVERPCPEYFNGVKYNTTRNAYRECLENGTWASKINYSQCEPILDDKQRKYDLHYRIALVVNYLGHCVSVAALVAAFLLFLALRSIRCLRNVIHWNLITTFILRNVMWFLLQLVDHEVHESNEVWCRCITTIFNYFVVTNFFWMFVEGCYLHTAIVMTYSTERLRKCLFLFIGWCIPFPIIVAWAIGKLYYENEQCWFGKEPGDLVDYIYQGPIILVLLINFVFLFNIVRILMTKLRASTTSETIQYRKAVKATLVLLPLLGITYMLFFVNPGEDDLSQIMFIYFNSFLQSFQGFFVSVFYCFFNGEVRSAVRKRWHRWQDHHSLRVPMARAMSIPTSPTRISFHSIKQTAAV
Description: cAMP agonism at human CRF2 α receptor in TeloHEAC cells (Example 7). The class given is cell-based. As to conditions: cAMP HTRF, TeloHEAC cells stably expressing human CRF2 α, 0% HSA; read-out: EC50 [nM], 0% HSA. As for the experimental part: Agonism of compounds for human corticotropin-releasing factor 2α (CRF2 α receptor) was determined by functional assays measuring CAMP response of a TeloHEAC cell line stably expressing human CRF2 α receptor.
Cells were grown in a T175 culture flask placed at 37° C. to near confluence in medium (DMEM/10% FBS) and collected in 2 ml vials in cell culture medium containing 10% DMSO in a concentration of 10-50 million cells/ml. Each vial contained 1.8 ml cells. The vials were slowly frozen to −80° C. in isopropanol and then transferred in liquid nitrogen for storage. Prior to use, frozen cells were thawed quickly at 37° C. and washed (5 min at 900 rpm) with 20 ml cell buffer (1×HBSS; 20 mM HEPES; 0% or 0.1% HSA). Cells were resuspended in assay buffer (cell buffer plus 2 mM IBMX) and adjusted to a cell density of 1 million cells/ml. For measurement, 5 μl cells (final […]) and 5 μL of test compound were added to a 384-well plate, followed by incubation for 30 minutes at room temperature.
The CAMP content of cells was determined using a kit from Cisbio Corp. (cat. no. 62AM4PEC) based on HTRF (Homogenous Time Resolved Fluorescence). After addition of HTRF reagents diluted in lysis buffer (kit components), the plates were incubated for 1 h, followed by measurement of the fluorescence ratio at 665/620 nm. The percent activity value (E %) was calculated by setting 1000 nM of urocortin 2 (UCN2) as 100%. The in vitro potency of the compounds was quantified by determining the concentrations that caused 50% activation of maximal response (EC50).
For orientation: In TR-FRET formats the signal depends on donor and acceptor labels being close together.

Structures are written as SMILES. Starred links: 1 amine or outer side, 2 acyl side, 3 side chain; linkers in the order of their positions; H or OH if unused. Non-standard residues stand in square brackets, D forms with d. Residues, ends and D or L forms follow the SMILES beside them. Groups on a side chain read outwards from the residue. *: point of attachment. C18 diacid = O=C(O)CCCCCCCCCCCCCCCCC(=O)*; γGlu = O=C(O)[C@H](CCC(=O)[*:2])N[*:1]; AEEA = NCCOCCOCC(=O)O; Aib = CC(C)(N)C(=O)O

`CC[C@H](C)[C@H](N)C(=O)N[C@H](C(=O)N[C@@H](CC(C)C)C(=O)N[C@@H](CO)C(=O)N[C@@H](CC(C)C)C(=O)N[C@@H](CC(=O)O)C(=O)N[C@H](C(=O)N1CCC[C@H]1C(=O)N[C@H](C(=O)N[C@@H](CCCCN)C(=O)N[C@@H](CC(C)C)C(=O)N[C@@H](CCCCNC(=O)COCCOCCNC(=O)COCCOCCNC(=O)CC[C@H](NC(=O)CCCCCCCCCCCCCCCCC(=O)O)C(=O)O)C(=O)N[C@@H](CCC(N)=O)C(=O)N[C@@H](CCCCN)C(=O)N[C@@H](CC(C)C)C(=O)N[C@@H](CC(C)C)C(=O)N[C@@H](CCCCN)C(=O)N[C@@H](CCC(N)=O)C(=O)N[C@@H](CCC(=O)O)C(=O)N[C@@H](CCCNC(=N)N)C(=O)N[C@@H](CCC(N)=O)C(=O)N[C@@H](CCCNC(=N)N)C(=O)NC(C)(C)C(=O)N[C@@H](CCC(=O)O)C(=O)N[C@@H](CCCNC(=N)N)C(=O)N[C@@H](CCC(N)=O)C(=O)N[C@@H](CCC(N)=O)C(=O)N[C@@H](C)C(=O)N[C@@H](CCC(=O)O)C(=O)N[C@H](C(=O)N[C@@H](CC(N)=O)C(=O)N[C@@H](CCCCN)C(=O)N[C@@H](CCCNC(=N)N)C(=O)N[C@H](C(=O)N[C@@H](CC(C)C)C(=O)N[C@@H](CCC(=O)O)C(=O)N[C@@H](CCCNC(=N)N)C(=O)N[C@H](C(N)=O)C(C)C)[C@@H](C)CC)[C@@H](C)O)[C@@H](C)O)C(C)C)C(C)C` [compound 38] (H-IVLSLDVPTKLK([AEEA-AEEA-γGlu-C18 diacid])QKLLKQERQR[Aib]ERQQAETNKRILERV-NH2): the EC50 was 20.9 nM.

On to `CC[C@H](C)[C@H](N)C(=O)N[C@H](C(=O)N[C@@H](CC(C)C)C(=O)N[C@@H](CO)C(=O)N[C@@H](CC(C)C)C(=O)N[C@@H](CC(=O)O)C(=O)N[C@H](C(=O)N1CCC[C@H]1C(=O)N[C@H](C(=O)N[C@@H](CCCCN)C(=O)N[C@@H](CC(C)C)C(=O)N[C@@H](CCCCNC(=O)COCCOCCNC(=O)COCCOCCNC(=O)CC[C@H](NC(=O)CCCCCCCCCCCCCCCCC(=O)O)C(=O)O)C(=O)N[C@@H](CCC(N)=O)C(=O)N[C@H](C(=O)N[C@@H](CC(C)C)C(=O)N[C@@H](CC(C)C)C(=O)N[C@@H](CCC(=O)O)C(=O)N[C@@H](CCC(N)=O)C(=O)N[C@@H](CCC(=O)O)C(=O)N[C@@H](CCCNC(=N)N)C(=O)N[C@@H](CCC(N)=O)C(=O)N[C@@H](CCCNC(=N)N)C(=O)N[C@@H](CCCCN)C(=O)N[C@@H](CCC(=O)O)C(=O)N[C@@H](CCCNC(=N)N)C(=O)N[C@@H](CCC(N)=O)C(=O)N[C@@H](CCC(N)=O)C(=O)N[C@@H](C)C(=O)N[C@@H](CCC(=O)O)C(=O)N[C@H](C(=O)N[C@@H](CC(N)=O)C(=O)N[C@H](C(=O)N[C@@H](CCC(N)=O)C(=O)N[C@H](C(=O)N[C@@H](CC(C)C)C(=O)N[C@@H](C)C(=O)N[C@@H](CCC(N)=O)C(=O)N[C@H](C(N)=O)C(C)C)[C@@H](C)CC)C(C)C)[C@@H](C)O)[C@@H](C)CC)[C@@H](C)CC)C(C)C)C(C)C` [compound 40] (H-IVLSLDVPIKLK([AEEA-AEEA-γGlu-C18 diacid])QILLEQERQRKERQQAETNVQILAQV-NH2; N-terminus assumed), for which the EC50 is 15.4 nM.

As for `CC[C@H](C)[C@H](N)C(=O)N[C@H](C(=O)N[C@@H](CC(C)C)C(=O)N[C@@H](CO)C(=O)N[C@@H](CC(C)C)C(=O)N[C@@H](CC(=O)O)C(=O)N[C@H](C(=O)N1CCC[C@H]1C(=O)N[C@H](C(=O)N[C@@H](CCCCN)C(=O)N[C@@H](CC(C)C)C(=O)N[C@@H](CCCCNC(=O)COCCOCCNC(=O)COCCOCCNC(=O)CC[C@H](NC(=O)CCCCCCCCCCCCCCCCC(=O)O)C(=O)O)C(=O)N[C@@H](CCC(N)=O)C(=O)N[C@H](C(=O)N[C@@H](CC(C)C)C(=O)N[C@@H](CC(C)C)C(=O)N[C@@H](CCC(=O)O)C(=O)N[C@@H](CCC(N)=O)C(=O)N[C@@H](CCC(=O)O)C(=O)N[C@@H](CCCNC(=N)N)C(=O)N[C@@H](CCC(N)=O)C(=O)N[C@@H](CCCNC(=N)N)C(=O)N[C@@H](CCCCN)C(=O)N[C@@H](CCC(=O)O)C(=O)N[C@@H](CCCNC(=N)N)C(=O)N[C@@H](CCC(N)=O)C(=O)N[C@@H](CCC(N)=O)C(=O)N[C@@H](C)C(=O)N[C@@H](CCC(=O)O)C(=O)N[C@@H](CCCCN)C(=O)N[C@@H](CC(N)=O)C(=O)N[C@H](C(=O)N[C@@H](CCCNC(=N)N)C(=O)N[C@H](C(=O)N[C@@H](CC(C)C)C(=O)N[C@@H](CCC(=O)O)C(=O)N[C@@H](CCCNC(=N)N)C(=O)N[C@H](C(N)=O)C(C)C)[C@@H](C)CC)C(C)C)[C@@H](C)CC)[C@@H](C)CC)C(C)C)C(C)C` [compound 41] (H-IVLSLDVPIKLK([AEEA-AEEA-γGlu-C18 diacid])QILLEQERQRKERQQAEKNVRILERV-NH2; N-terminus assumed), the EC50 stood at 15.6 nM.

As for `CC[C@H](C)[C@H](N)C(=O)N[C@H](C(=O)N[C@@H](CC(C)C)C(=O)N[C@@H](CO)C(=O)N[C@@H](CC(C)C)C(=O)N[C@@H](CC(=O)O)C(=O)N[C@H](C(=O)N1CCC[C@H]1C(=O)N[C@H](C(=O)N[C@@H](CCCCN)C(=O)N[C@@H](CC(C)C)C(=O)N[C@@H](CCCCNC(=O)COCCOCCNC(=O)COCCOCCNC(=O)CC[C@H](NC(=O)CCCCCCCCCCCCCCCCC(=O)O)C(=O)O)C(=O)N[C@@H](CCC(N)=O)C(=O)N[C@H](C(=O)N[C@@H](CC(C)C)C(=O)N[C@@H](CC(C)C)C(=O)N[C@@H](CCC(=O)O)C(=O)N[C@@H](CCC(N)=O)C(=O)N[C@@H](CCC(=O)O)C(=O)N[C@@H](CCCNC(=N)N)C(=O)N[C@@H](CCC(N)=O)C(=O)N[C@@H](CCCNC(=N)N)C(=O)NC(C)(C)C(=O)N[C@@H](CCC(=O)O)C(=O)N[C@@H](CCCNC(=N)N)C(=O)N[C@@H](CCC(N)=O)C(=O)N[C@@H](CCC(N)=O)C(=O)N[C@@H](C)C(=O)N[C@@H](CCC(=O)O)C(=O)N[C@@H](CCCCN)C(=O)N[C@@H](CC(N)=O)C(=O)N[C@H](C(=O)N[C@@H](CCCNC(=N)N)C(=O)N[C@H](C(=O)N[C@@H](CC(C)C)C(=O)N[C@@H](CCC(=O)O)C(=O)N[C@@H](CCCNC(=N)N)C(=O)N[C@H](C(N)=O)C(C)C)[C@@H](C)CC)C(C)C)[C@@H](C)CC)[C@@H](C)CC)C(C)C)C(C)C` [compound 42] (H-IVLSLDVPIKLK([AEEA-AEEA-γGlu-C18 diacid])QILLEQERQR[Aib]ERQQAEKNVRILERV-NH2), the EC50 came out at 15.4 nM.

As to `CC[C@H](C)[C@H](N)C(=O)N[C@H](C(=O)N[C@@H](CC(C)C)C(=O)N[C@@H](CO)C(=O)N[C@@H](CC(C)C)C(=O)N[C@@H](CC(=O)O)C(=O)N[C@H](C(=O)N1CCC[C@H]1C(=O)N[C@H](C(=O)N[C@@H](CCCCN)C(=O)N[C@@H](CC(C)C)C(=O)N[C@@H](CCCCNC(=O)COCCOCCNC(=O)COCCOCCNC(=O)CC[C@H](NC(=O)CCCCCCCCCCCCCCCCC(=O)O)C(=O)O)C(=O)N[C@@H](CCC(N)=O)C(=O)N[C@H](C(=O)N[C@@H](CC(C)C)C(=O)N[C@@H](CC(C)C)C(=O)N[C@@H](CCC(=O)O)C(=O)N[C@@H](CCC(N)=O)C(=O)N[C@@H](C)C(=O)N[C@@H](CCCCN)C(=O)N[C@@H](CCC(N)=O)C(=O)N[C@@H](CCCCN)C(=O)N[C@@H](CCCCN)C(=O)N[C@@H](CCC(=O)O)C(=O)N[C@@H](CCCNC(=N)N)C(=O)N[C@@H](C)C(=O)N[C@@H](CCC(N)=O)C(=O)N[C@@H](C)C(=O)N[C@@H](CCC(=O)O)C(=O)N[C@H](C(=O)N[C@@H](CC(N)=O)C(=O)N[C@H](C(=O)N[C@@H](CCCNC(=N)N)C(=O)N[C@H](C(=O)N[C@@H](CC(C)C)C(=O)N[C@@H](CCC(=O)O)C(=O)N[C@@H](CCCNC(=N)N)C(=O)N[C@H](C(N)=O)C(C)C)[C@@H](C)CC)C(C)C)[C@@H](C)O)[C@@H](C)CC)[C@@H](C)CC)C(C)C)C(C)C` [compound 44] (H-IVLSLDVPIKLK([AEEA-AEEA-γGlu-C18 diacid])QILLEQAKQKKERAQAETNVRILERV-NH2), the EC50 was determined as 13.7 nM.
